Here are results for 23 compounds from patent US12226405B2, “Compounds and compositions for inhibiting the activity of HIF2-alpha and their methods of use” (Novartis AG, priority 2020, dated 2025).

pIC50: −log10 of the molar value.

Experiment [1] has as its system HIF2α-regulated expression of the endogenous target gene hEGLN3 in 786-O cells. The experiment is described as follows: Cellular iScript assay for HIF2α (quantitative RT-PCR of hEGLN3). The following applies: Homo sapiens, 786-0, 48 hours incubation. Type of experiment: cell-based, human. In a few lines: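 786-O cells were exposed to eleven 2-fold compound dilutions for 48 h at 37° C. Lysates underwent one-step TaqMan qRT-PCR for hEGLN3 with beta-actin as reference; 2^(−ΔΔCt) versus DMSO, as % of control, was fit with a four-parameter model to give IC50.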

Experiment [2] addresses HIF2α PAS-B domain (236-350, biotinylated on the N-terminus) (Homo sapiens (Human), UniProt Q99814).
Procedure: The assay buffer contained 50 mM Tris-HCl pH7 (Sigma), 20 mM NaCl (Fluka), 0.02% BSA (Sigma), 0.005% Triton X-100 (Pierce) and 1 mM DTT (Fluka). After a 30 min incubation period, 5 μL Streptavidin PVT SPA Beads (Perkin Elmer) at 1.2 mg/mL, diluted in the buffer, were added.
For experiment [3], the system named is HIF2α-dependent transcription in 786-O-HRE-Luc cells. As to the kind of experiment: In vitro cellular hypoxia response element (HRE) reporter gene assay (RGA) for HIF2α. Type of experiment: cell-based, human. The following applies: Homo sapiens, 24 hours incubation. The procedure, abridged: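 Renal carcinoma cells carrying a 4×HRE-driven PEST-destabilised firefly luciferase were treated a day after seeding with eleven 2-fold compound dilutions (0.1% DMSO) for 24 h at 37° C. BrightGlo luminescence, background-subtracted and expressed as % of DMSO control, was fitted four-parametrically for IC50.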
Background: A reporter such as luciferase makes a cellular process visible.

Chain of HIF2α PAS-B domain (236-350, biotinylated on the N-terminus) (Q99814 236-350): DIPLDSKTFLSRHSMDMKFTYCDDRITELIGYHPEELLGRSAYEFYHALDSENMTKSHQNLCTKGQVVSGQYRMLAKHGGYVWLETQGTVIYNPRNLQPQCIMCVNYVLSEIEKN

One may read the pIC50 as −log10 of the IC50, conventionally taken in molar units. A low value points to a high IC50. `Fc1c(OC(F)F)ccc2c1OCC[C@@]21CN2C=C(C(F)(F)F)C=C(OC(F)F)C2=N1` [Example 54, (S)-7,8′-bis(difluoromethoxy)-8-fluoro-6′-(trifluoromethyl)-3′ H-spiro[chroman-4,2′-imidazo[1,2-a]pyridine]]: the figures for the pIC50 in experiment [1], in experiment [2] and in experiment [3] were 7.07, 7.48 and 6.50, respectively.
For `Fc1c(Br)ccc2c1CCC[C@@]21CN2C=C(C(F)(F)F)C=C(Cl)C2=N1` [Example 16, (S)-6′-bromo-8-chloro-5′-fluoro-6-(trifluoromethyl)-3′,4′-dihydro-2′H,3H-spiro[imidazo[1,2-a]pyridine-2,1′-naphthalene]] the same measures were 7.37, not below 8.22 and 6.43.
As to `Cc1ccc2c(c1F)OCC[C@@]21CN2C=C(C(F)(F)F)C=C(OC(F)F)C2=N1` [Example 46, (S)-8′-(difluoromethoxy)-8-fluoro-7-methyl-6′-(trifluoromethyl)-3′H-spiro[chroman-4,2′-imidazo[1,2-a]pyridine]], the pIC50 in experiment [1] was 7.30; in experiment [2], 7.89; in experiment [3], 7.17.
For `Fc1ccc2c(c1F)CC[C@@]21CN2C=C(C(F)(F)F)C=C(OC(F)F)C2=N1` [Example 2, (S)-8-(difluoromethoxy)-4′,5′-difluoro-6-(trifluoromethyl)-2′,3′-dihydro-3H-spiro[imidazo[1,2-a]pyridine-2,1′-indene]] the same measures were 6.82, 7.92 and 5.82.
On the same counts, the results for `FC(F)OC1=CC(C(F)(F)F)=CN2C[C@@]3(CCOc4c(Br)cccc43)N=C12` [Example 107, (S)-8-bromo-8′-(difluoromethoxy)-6′-(trifluoromethyl)-3′H-spiro[chromane-4,2′-imidazo[1,2-a]pyridine]] are 6.72, 8.15 and 6.09.
For `FC(F)OC1=CC(C(F)(F)F)=CN2C[C@@]3(CCOc4c(C(F)(F)F)cccc43)N=C12` [Example 104, (S)-8′-(difluoromethoxy)-6′,8-bis(trifluoromethyl)-3′H-spiro[chromane-4,2′-imidazo[1,2-a]pyridine]] the same measures were 6.93, not below 8.30 and 6.20.
As to `N#CC1=CN2C[C@@]3(CCOc4c3ccc(I)c4F)N=C2C(OC(F)F)=C1` [Example 51, (S)-8′-(difluoromethoxy)-8-fluoro-7-iodo-3′H-spiro[chroman-4,2′-imidazo[1,2-a]pyridine]-6′-carbonitrile], the pIC50 is 7.09 in experiment [1], 8.05 in experiment [2] and 6.29 in experiment [3].
On the same counts, the results for `FC(F)OC1=CC(C(F)(F)F)=CN2C[C@@]3(CCCc4cc(Cl)ncc43)N=C12` [Example 37, (S)-3′-chloro-8-(difluoromethoxy)-6-(trifluoromethyl)-6′,7′-dihydro-3H,5′H-spiro[imidazo[1,2-a]pyridine-2,8′-isoquinoline]] are 7.05, 7.60 and 6.51.
As to `FCOC1=CC(C(F)(F)F)=CN2C[C@@]3(CCc4c3ccc(Br)c4F)N=C12` [Example 5, (5)-5′-bromo-4′-fluoro-8-(fluoromethoxy)-6-(trifluoromethyl)-2′,3′-dihydro-3H-spiro[imidazo[1,2-a]pyridine-2,1′-indene]], the pIC50 is 6.86 in experiment [1], 8.05 in experiment [2] and 6.48 in experiment [3].
For `Fc1c(Br)ccc2c1[C@@H](F)[C@H](F)C[C@@]21CN2C=C(C(F)(F)F)C=C(OC(F)F)C2=N1` [Example 83, (2S,3′R,4′R)-6′-bromo-8-(difluoromethoxy)-3′,4′,5′-trifluoro-6-(trifluoromethyl)-3′,4′-dihydro-2′H,3H-spiro[imidazo[1,2-a]pyridine-2,1′-naphthalene]] the same measures were 7.52, 8.05 and 7.57.
For `N#CC1=CN2C[C@@]3(CCc4cc(I)ccc43)N=C2C(OC(F)F)=C1` [Example 73, (S)-8-(difluoromethoxy)-5′-iodo-2′,3′-dihydro-3H-spiro[imidazo[1,2-a]pyridine-2,1′-indene]-6-carbonitrile] the same measures were 6.87, not below 8.22 and 6.27.
For `Fc1c(C(F)(F)F)ccc2c1OCC[C@@]21CN2C=C(C(F)(F)F)C=C(OC(F)F)C2=N1` [Example 40, (S)-8′-(difluoromethoxy)-8-fluoro-6′,7-bis(trifluromethyl)-3′H-spiro[chroman-4,2′-imidazo[1,2-a]pyridine]] the same measures were 7.30, 8.22 and 6.72.
As for `FC(F)OC1=CC(C(F)(F)F)=CN2C[C@@]3(CCC(F)(F)c4c3ccnc4C(F)F)N=C12` [Example 70, (S)-8-(difluoromethoxy)-1′-(difluoromethyl)-8′,8′-difluoro-6-(trifluoromethyl)-7′,8′-dihydro-3H,6′H-spiro[imidazo[1,2-a]pyridine-2,5′-isoquinoline]], the negative-log IC50 (pIC50) in experiment [1] was 7.02; in experiment [2], 7.70; in experiment [3], 5.78.
Consider `N#Cc1ccc2c(c1)CCC[C@@]21CN2C=C(C(F)(F)F)C=C(OC(F)F)C2=N1` [Example 38, (S)-8-(difluoromethoxy)-6-(trifluoromethyl)-3′,4′-dihydro-2′H,3H-spiro[imidazo[1,2-a]pyridine-2,1′-naphthalene]-6′-carbonitrile], for which the pIC50 in experiment [1] was 7.08; in experiment [2], 7.92; in experiment [3] it was 6.49.
As for `Fc1c(C(F)(F)F)ccc2c1CC[C@@]21CN2C=C(C(F)(F)F)C=C(OC(F)F)C2=N1` [Example 74, (S)-8-(difluoromethoxy)-4′-fluoro-5′,6-bis(trifluoromethyl)-2′,3′-dihydro-3H-spiro[imidazo[1,2-a]pyridine-2,1′-indene]], the negative-log IC50 (pIC50) in experiment [1] was 6.97; in experiment [2], not below 8.00; in experiment [3], 6.29.
For `Fc1c(SC(F)F)ccc2c1OCC[C@@]21CN2C=C(C(F)(F)F)C=C(OC(F)F)C2=N1` [Example 106, (S)-8′-(difluoromethoxy)-7-((difluoromethyl)thio)-8-fluoro-6′-(trifluoromethyl)-3′H-spiro[chromane-4,2′-imidazo[1,2-a]pyridine]] the same measures were 7.09, 8.00 and 6.83.
Turning to `FCOC1=CC(C(F)(F)F)=CN2C[C@@]3(CCSc4c3cnc(C(F)(F)F)c4F)N=C12` [Example 114, (S)-8′-fluoro-8-(fluoromethoxy)-6,7′-bis(trifluoromethyl)-2′,3′-dihydro-3H-spiro[imidazo[1,2-a]pyridine-2,4′-thiopyrano[3,2-c]pyridine]], the pIC50 in experiment [1] was 7.08; in experiment [2] it was 7.38; in experiment [3], 6.45.
For `Fc1ccc2c(c1F)CCC[C@@]21CN2C=C(C(F)(F)F)C=C(OC(F)F)C2=N1` [Example 85, (S)-8-(difluoromethoxy)-5′,6′-difluoro-6-(trifluoromethyl)-3′,4′-dihydro-2′H,3H-spiro[imidazo[1,2-a]pyridine-2,1′-naphthalene]] the same measures were 7.15, 8.40 and 6.69.
On the same counts, the results for `COc1ccc2c(c1F)CCC[C@@]21CN2C=C(C(F)(F)F)C=C(F)C2=N1` [Example 76, (S)-5′,8-difluoro-6′-methoxy-6-(trifluoromethyl)-3′,4′-dihydro-2′H,3H-spiro[imidazo[1,2-a]pyridine-2,1′-naphthalene]] are 6.76, 7.31 and 6.11.
For `O=C1CC[C@@]2(CN3C=C(C(F)(F)F)C=C(OC(F)F)C3=N2)c2ccc(Br)c(F)c21` [Example 8, (S)-6′-bromo-8-(difluoromethoxy)-5′-fluoro-6-(trifluoromethyl)-2′H,3H-spiro[imidazo[1,2-a]pyridine-2,1′-naphthalen]-4′(3′H)-one] the same measures were 6.70, 7.85 and 6.57.
In the case of `[2H]C([2H])([2H])c1nccc2c1C(F)(F)CC[C@@]21CN2C=C(C(F)(F)F)C=C(OC(F)F)C2=N1` [Example 33, (S)-8-(difluoromethoxy)-8′,8′-difluoro-1′-(methyl-d3)-6-(trifluoromethyl)-7′,8′-dihydro-3H, 6′H-spiro[imidazo[1,2-a]pyridine-2,5′-isoquinoline]], the figures for the pIC50 in experiment [1], in experiment [2] and in experiment [3] were 7.11, 7.77 and 6.26, respectively.
For `COc1nccc2c1C(F)(F)CC[C@@]21CN2C=C(C(F)(F)F)C=C(OC(F)F)C2=N1` [Example 34, (S)-8-(difluoromethoxy)-8′,8′-difluoro-1′-methoxy-6-(trifluoromethyl)-7′,8′-dihydro-3H, 6′H-spiro[imidazo[1,2-a]pyridine-2,5′-isoquinoline]] the same measures were 6.71, 7.64 and 5.84.
In the case of `FCOC1=CC(C(F)(F)F)=CN2C[C@@]3(CCOc4c(Cl)cccc43)N=C12` [Example 95, (S)-8-chloro-8′-(fluoromethoxy)-6′-(trifluoromethyl)-3′H-spiro[chromane-4,2′-imidazo[1,2-a]pyridine]], the pIC50 in experiment [1] was 6.74; in experiment [2], 7.64; in experiment [3] it was 6.57.
